Assay results: patent US5264593A, “Cholesterol lowering compounds” (Merck & Co., Inc., priority 1993, dated 1993)
pIC50: −log10 of the molar value.

Biological target: T1, squalene synthetase (human HepG2 cell enzyme) (Homo sapiens, UniProt P37268)
T1 construct: SOURCE: HEPG2 CELL LINE (Liver, hepatoblastoma, Human) ATCC No. HB 8065; endogenous in cells; host or cells: HepG2 (ATCC HB 8065), sonicated cell extract
T1 sequence (P37268 1-417): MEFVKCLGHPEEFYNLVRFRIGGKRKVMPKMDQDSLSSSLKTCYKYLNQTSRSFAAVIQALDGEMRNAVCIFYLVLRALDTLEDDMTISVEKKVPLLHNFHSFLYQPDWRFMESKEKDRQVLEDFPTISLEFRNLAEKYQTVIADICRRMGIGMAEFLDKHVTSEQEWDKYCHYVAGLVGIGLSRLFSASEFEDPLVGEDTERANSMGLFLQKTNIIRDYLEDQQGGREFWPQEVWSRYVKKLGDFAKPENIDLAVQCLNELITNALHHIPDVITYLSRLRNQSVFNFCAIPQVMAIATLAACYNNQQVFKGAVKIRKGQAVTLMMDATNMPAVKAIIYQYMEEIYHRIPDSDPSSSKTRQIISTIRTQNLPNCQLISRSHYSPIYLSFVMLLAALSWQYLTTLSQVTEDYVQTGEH
Test: Squalene Synthase Assay (human HepG2 cell enzyme, 3H-farnesyl pyrophosphate substrate)
Type: biochemical
Settings: 3 μM 3H-farnesyl pyrophosphate, pH 7.5, 30° C., 20 minutes
Experimental: The intrinsic squalene synthetase inhibitory activity of the compounds of this invention was measured by the standard in vitro protocol described below:
PREPARATION OF HUMAN HepG2 cell ENZYME
1. SOURCE: HEPG2 CELL LINE (Liver, hepatoblastoma, Human) ATCC No. HB 8065
2. CELL GROWTH AND MAINTENANCE
Culture Medium: Minimum essential medium (MEM) with non-essential amino acids, sodium pyruvate, and 10% fetal bovine serum. The medium was changed twice weekly. […] The growth medium is prepared as listed below.
Subculture Procedure: Remove medium, wash with PBS, add fresh trypsin (0.25%)-EDTA (0.02%) with Hank's Balanced Salt solution and let flask stand for a minute and remove the trypsin solution. Incubate flask at 37° C. until cells detached. Add fresh medium, disperse and dispense cells into new flasks. Subcultivation ratio: 1:6.
PREPARATION of Delipidated Serum: Fetal calf serum (100 ml) and CAB-O-Sil (2 grams) stir overnight at 4° C. and centrifuge at 16,000 rpm for 5 hrs. […]
For each reaction, 55 μl of buffer mixture was taken with 5 μl of an inhibitor solution in DMSO and 10 μl of diluted enzyme (1 to 250 as described in the enzyme preparation, the final protein concentration of enzyme in the assay is 2 μg per ml.). […] 150 μl of heptane layer was then removed into a 96 deep well plate and mixed with 150 μl of scintillation fluid and the radioactivity was determined by liquid scintillation counting. […]

pIC50 | Compound
7.23 | C=C(CCC12OCC(OC(=O)C(C)(C)C)C(C(=O)O)(O1)C(OC(=O)/C=C/C(C)CC(C)CC)C2O)C(OC(C)=O)C(C)Cc1ccccc1 (stereo not drawn) [Example 2, 4-Trimethylacetate of 3,4-decarboxy-4-epi-Zaragozic Acid A]
8.53 | C=C(CCC12OCC(OC(C)=O)C(C(=O)O)(O1)C(OC(=O)/C=C/C(C)CC(C)CC)C2O)C(OC(C)=O)C(C)Cc1ccccc1 (stereo not drawn) [Example 1, 4-Acetate of 3,4-decarboxy-4-epi-Zaragozic Acid A]
